Assay results as given in PMC5943319, “Cloning and characterization of a pyrethroid pesticide decomposing esterase gene, Est3385, from Rhodopseudomonas palustris PSB-S” (Scientific Reports, 2018).

System: Est3385
Assay: GC quantification of residual substrate, Michaelis-Menten
Type: biochemical, Rhodopseudomonas palustris
Conditions: GST fusion; substrate 10-50 µg/ml (below the Km); pH and temperature of kinetics not stated

Compound `CC1(C)C(C(=O)OC(C#N)c2cccc(Oc3ccccc3)c2)C1(C)C` (stereo not shown) [fenpropathrin] has a Km of 734 ± 13 µM.
